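Five concentrations, 48 hours, 96-well plates. At the TGI there is no net growth.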
Tests used:
Experiment in all cases: DTP human tumour cell line panel, 48 h
786-0 renal = system: 786-0 renal
A549 NSCLC = system: A549 NSCLC
ACHN renal = system: ACHN renal
BT-549 breast = system: BT-549 breast
CAKI-1 renal = system: CAKI-1 renal
CCRF-CEM leukemia = system: CCRF-CEM leukemia
COLO 205 colon = system: COLO 205 colon
DU-145 prostate = system: DU-145 prostate
EKVX NSCLC = system: EKVX NSCLC
HCC-2998 colon = system: HCC-2998 colon
HCT-116 colon = system: HCT-116 colon
HCT-15 colon = system: HCT-15 colon
HL-60(TB) leukemia = system: HL-60(TB) leukemia
HOP-62 NSCLC = system: HOP-62 NSCLC
HOP-92 NSCLC = system: HOP-92 NSCLC
HS 578T breast = system: HS 578T breast
HT29 colon = system: HT29 colon
IGROV1 ovarian = system: IGROV1 ovarian
K-562 leukemia = system: K-562 leukemia
KM12 colon = system: KM12 colon
LOX IMVI melanoma = system: LOX IMVI melanoma
M14 melanoma = system: M14 melanoma
MALME-3M melanoma = system: MALME-3M melanoma
MCF7 breast = system: MCF7 breast
MDA-MB-231 breast = system: MDA-MB-231 breast
MDA-MB-435 = system: MDA-MB-435
MDA-N = system: MDA-N
MOLT-4 leukemia = system: MOLT-4 leukemia
NCI-H226 lung = system: NCI-H226 lung
NCI-H23 lung = system: NCI-H23 lung
NCI-H460 lung = system: NCI-H460 lung
NCI-H522 lung = system: NCI-H522 lung
NCI/ADR-RES ovarian = system: NCI/ADR-RES ovarian
OVCAR-3 ovarian = system: OVCAR-3 ovarian
OVCAR-4 ovarian = system: OVCAR-4 ovarian
OVCAR-5 ovarian = system: OVCAR-5 ovarian
OVCAR-8 ovarian = system: OVCAR-8 ovarian
PC-3 prostate = system: PC-3 prostate
RPMI-8226 leukemia = system: RPMI-8226 leukemia
RXF 393 renal = system: RXF 393 renal
SF-268 CNS = system: SF-268 CNS
SF-295 CNS = system: SF-295 CNS
SF-539 CNS = system: SF-539 CNS
SK-MEL-2 melanoma = system: SK-MEL-2 melanoma
SK-MEL-28 melanoma = system: SK-MEL-28 melanoma
SK-MEL-5 melanoma = system: SK-MEL-5 melanoma
SK-OV-3 ovarian = system: SK-OV-3 ovarian
SN12C renal = system: SN12C renal
SNB-19 CNS = system: SNB-19 CNS
SNB-75 CNS = system: SNB-75 CNS
SR leukemia = system: SR leukemia
SW-620 colon = system: SW-620 colon
T-47D breast = system: T-47D breast
TK-10 renal = system: TK-10 renal
U251 CNS = system: U251 CNS
UACC-257 melanoma = system: UACC-257 melanoma
UACC-62 melanoma = system: UACC-62 melanoma
UO-31 renal = system: UO-31 renal
A498 renal = system: A498 renal

Measured: TGI

COc1cc(C(=O)O)ccc1OS(=O)(=O)O
not listed: A498 renal
> 100 µM: all other assays above

Cc1ccccc1OC(C)C(=O)NN1C(=O)CC(=O)NC1=S (stereo unspecified)
not listed: CCRF-CEM leukemia
> 100 µM: all other assays above
